Data: ChEMBL document CHEMBL1125017, “Potent anticonflict activity and lessening of memory impairment with a series of novel [1]benzothieno[2,3-c]pyridines and 1,2,3,4-tetrahydro[1]benzothieno[2,3-c]pyridines” (J Med Chem, 1990)

Columns and labels:
Rattus norvegicus = test: Anticonflict activity measured in male wistar rats; number of shocks received in 5 min at an intravenous dose of 10 mg/kg.; type: functional
Mus musculus [1] = test: Lessening of memory impairment measured in mice; time of latency in seconds at an intravenous dose of 10 mg/kg.; type: functional
[2] = target: GABA-A receptor; anion channel; test: Inhibition of [3H]flunitrazepam binding to GABA-A Benzodiazepine receptor of Wistar rat cerebral cortex; type: tissue-based
Mus musculus [3] = species on record: Mus musculus; test: Lessening of memory impairment by the compound was measured in mice.; type: functional

Row | IC50 [2] | Structure (SMILES) | Activity (Rattus norvegicus) | Activity (Mus musculus [1]) | Activity (Mus musculus [3])
1 |  | CC(=O)N1CCCN(C(=O)c2cc3c(cn2)sc2ccccc23)CC1.Cl | 22.2 | 55 | 
2 |  | CCCOC(=O)C1Cc2c(sc3ccccc23)CN1 (centres undefined) | 14.5 | 57.2 | 
3 |  | CCNC(=O)c1cc2c(cn1)sc1ccccc12 | 8.5 | 36.3 | 
4 |  | CCOC(=O)C1Cc2c(sc3ccccc23)CN1C(=O)c1ccccc1Cl (centres undefined) | 2.5 | 28.1 | 
5 |  | CN1CCCN(C(=O)c2cc3c(cn2)sc2ccccc23)CC1.Cl | 3.5 | 40.3 | 
6 |  | Cl.NCCCC(=O)N1CCCN(C(=O)c2cc3c(cn2)sc2ccccc23)CC1 |  | 51.9 | 
7 |  | CC1CCCC(C)N1C(=O)c1cc2c(cn1)sc1ccccc12 (centres undefined) | 4.5 |  | 
8 |  | NNC(=O)c1cc2c(cn1)sc1ccccc12 | 11.2 | 20.4 | 
9 |  | COC(=O)CCCNC(=O)c1cc2c(cn1)sc1ccccc12 | 9.9 |  | 
10 |  | O=C(c1cc2c(cn1)sc1ccccc12)N1CCOCC1 | 8.2 | 52.9 | 
11 |  | Cl.O=C(c1cc2c(cn1)sc1ccccc12)N1CCNCC1 | 17.8 | 40.7 | 
12 |  | O=C(c1cc2c(cn1)sc1ccccc12)N1CCCCC1 | 5 | 60.2 | 
13 |  | CN(C)CCNC(=O)c1cc2c(cn1)sc1ccccc12.Cl | 9.6 | 64.5 | 
14 |  | CNC(=O)c1cc2c(cn1)sc1ccccc12 | 8.4 | 28.6 | 
15 | 1.56 mM | NC(=O)c1cc2c(cn1)sc1ccccc12 | 17 | 24.7 | 
16 |  | CCOC(=O)C1Cc2c(sc3ccccc23)CN1C (centres undefined) | 22 | 32.9 | 
17 |  | CN1CCN(C(=O)c2cc3c(cn2)sc2ccccc23)CC1.Cl | 3.3 | 44.2 | 
18 |  | COC(=O)C1Cc2c(sc3ccccc23)CN1 (centres undefined) | 17.9 |  | 64.5
